For 13 compounds, IC50 results are on record in US8013153B2, “Substituted pyrimidine kinase inhibitors” (Janssen Pharmaceutica, N.V., priority 2006, dated 2011).

Assay [1] concerns HCT-116 colon carcinoma. Description: Inhibition of in vitro cell proliferation (HCT116).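 Note: cells exposed to compound for 24 h, then 14C-thymidine added for a further 24 h and its uptake into DNA counted by scintillation, DMSO-only wells as control.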 Type of assay: cell-based, human. Conditions: Homo sapiens, HCT-116, 14C-thymidine incorporation.
The target of assay [2] is T1, murine Aurora-A (Mus musculus, UniProt P97477).
T1 construct: replaced with the full length protein encoding the murine Aurora-A; made in house; host or cells: sf9 insect cells
T1 sequence (P97477 1-395): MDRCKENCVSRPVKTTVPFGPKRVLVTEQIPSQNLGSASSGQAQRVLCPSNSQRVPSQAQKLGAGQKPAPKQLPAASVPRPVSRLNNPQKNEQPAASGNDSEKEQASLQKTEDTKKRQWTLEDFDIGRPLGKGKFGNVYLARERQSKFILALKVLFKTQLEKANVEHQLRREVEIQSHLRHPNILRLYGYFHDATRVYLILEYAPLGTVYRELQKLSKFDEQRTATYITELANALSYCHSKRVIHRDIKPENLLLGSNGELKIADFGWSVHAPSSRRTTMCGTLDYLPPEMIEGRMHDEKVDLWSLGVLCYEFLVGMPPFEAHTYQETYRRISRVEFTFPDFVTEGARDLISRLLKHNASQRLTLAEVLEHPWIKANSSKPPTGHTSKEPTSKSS
Description: Aurora-A Screening Assay. Type of assay: biochemical.

Assay [3] addresses T2, RET cytoplasmic domain (Homo sapiens, UniProt P07949).
T2 construct: the RET cytoplasmic domain consisting of the last 492 amino acids of the intracellular domain; histidine tag (N); made in house; host or cells: Hi5 insect cells
T2 sequence (P07949 658-1114 limits assumed): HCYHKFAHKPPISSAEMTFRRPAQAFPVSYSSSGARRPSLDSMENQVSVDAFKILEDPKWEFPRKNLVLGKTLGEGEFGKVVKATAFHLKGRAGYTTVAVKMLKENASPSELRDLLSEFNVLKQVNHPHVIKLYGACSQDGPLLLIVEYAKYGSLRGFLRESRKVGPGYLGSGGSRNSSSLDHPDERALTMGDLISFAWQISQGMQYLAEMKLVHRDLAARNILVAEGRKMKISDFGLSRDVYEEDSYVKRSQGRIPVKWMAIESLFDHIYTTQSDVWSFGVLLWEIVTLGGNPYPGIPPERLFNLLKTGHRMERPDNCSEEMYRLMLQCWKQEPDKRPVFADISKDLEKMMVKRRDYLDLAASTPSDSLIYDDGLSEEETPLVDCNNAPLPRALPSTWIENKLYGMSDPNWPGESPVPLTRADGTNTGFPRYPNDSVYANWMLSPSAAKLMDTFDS
As to the kind of experiment: RET Kinase Screening Assay. Type of assay: biochemical.

In assay [4] the test system is HeLa cervical adenocarcinoma. As to the kind of experiment: Inhibition of in vitro cell proliferation (HeLa).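 Note: cells exposed to compound for 24 h, then labelled 24 h with methyl 14C-thymidine, with uptake into DNA counted by scintillation against DMSO-only control wells.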 Type of assay: cell-based, human. Conditions: Homo sapiens, 14C-thymidine incorporation.
Assay [5] has as its target T3, rat VEGF-R2 kinase domain (Rattus norvegicus, UniProt O08775).
T3 construct: amino acids 786-1343 of the rat VEGF-R2 kinase domain; polyhistidine (N)
As to the kind of experiment: VEGF-R2 Screening Assay. Type of assay: biochemical. Particulars: > means no observed 50% inhibition at the indicated test concentration; ~ means approximately 50% inhibition at that concentration; read-out: IC50 VEGF-R2.

The target of assay [6] is T4, HER2 cytoplasmic domain (Homo sapiens, UniProt P04626).
T4 construct: polyhistidine (N)
T4 sequence (P04626 676-1255 limits assumed): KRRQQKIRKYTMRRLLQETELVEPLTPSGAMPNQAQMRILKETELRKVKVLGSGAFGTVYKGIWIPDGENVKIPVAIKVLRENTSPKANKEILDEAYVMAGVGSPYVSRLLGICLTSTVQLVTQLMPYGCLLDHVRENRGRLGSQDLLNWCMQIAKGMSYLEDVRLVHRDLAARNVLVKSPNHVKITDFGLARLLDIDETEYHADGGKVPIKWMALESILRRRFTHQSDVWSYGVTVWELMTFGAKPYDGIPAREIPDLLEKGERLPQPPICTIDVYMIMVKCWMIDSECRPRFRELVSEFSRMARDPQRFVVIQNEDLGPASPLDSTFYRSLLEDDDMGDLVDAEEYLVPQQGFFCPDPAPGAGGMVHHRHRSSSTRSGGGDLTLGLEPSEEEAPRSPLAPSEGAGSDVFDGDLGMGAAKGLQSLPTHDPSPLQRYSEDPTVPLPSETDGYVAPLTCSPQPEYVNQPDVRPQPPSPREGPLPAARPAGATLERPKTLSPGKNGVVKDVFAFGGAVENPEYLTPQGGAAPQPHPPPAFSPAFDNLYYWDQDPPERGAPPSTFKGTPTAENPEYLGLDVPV
Description: HER2 Kinase Screening Assay. Conditions: > means no observed 50% inhibition at the indicated test concentration; ~ means approximately 50% inhibition at that concentration. Type of assay: biochemical.

Assay [7] concerns A375 malignant melanoma. Description: Inhibition of in vitro cell proliferation (A375).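 Note: cells plated for 24 h, given compound for 24 h, then labelled with 14C-thymidine for another 24 h, with DMSO-only wells as control and counts read by scintillation.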 Type of assay: cell-based, human. Particulars: Homo sapiens, A-375, 14C-thymidine incorporation.
Assay [8] addresses T5, CDK1:Cyclin-B (Homo sapiens, UniProt P06493).
T5 construct: purchased New England Biolabs, Beverly, Mass; 6020; host or cells: insect cells
As to the kind of experiment: CDK1 Screening Assay. Type of assay: biochemical.

T3 sequence (O08775 786-1343): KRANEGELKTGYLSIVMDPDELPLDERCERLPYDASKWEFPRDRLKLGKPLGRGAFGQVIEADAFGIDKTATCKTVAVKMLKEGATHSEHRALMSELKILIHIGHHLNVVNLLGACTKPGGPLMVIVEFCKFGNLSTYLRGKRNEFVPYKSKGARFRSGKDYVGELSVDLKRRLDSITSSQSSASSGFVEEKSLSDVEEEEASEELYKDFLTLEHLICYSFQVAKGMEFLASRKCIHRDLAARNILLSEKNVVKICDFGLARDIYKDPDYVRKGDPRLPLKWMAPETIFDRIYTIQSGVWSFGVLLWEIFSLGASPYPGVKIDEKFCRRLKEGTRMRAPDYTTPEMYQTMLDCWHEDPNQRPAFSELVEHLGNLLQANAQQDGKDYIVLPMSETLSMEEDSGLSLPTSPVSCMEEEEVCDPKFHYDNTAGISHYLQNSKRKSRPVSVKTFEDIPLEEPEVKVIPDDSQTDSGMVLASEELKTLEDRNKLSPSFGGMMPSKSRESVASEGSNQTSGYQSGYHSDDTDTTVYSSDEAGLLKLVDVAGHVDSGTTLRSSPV
T5 sequence (P06493 whole entry): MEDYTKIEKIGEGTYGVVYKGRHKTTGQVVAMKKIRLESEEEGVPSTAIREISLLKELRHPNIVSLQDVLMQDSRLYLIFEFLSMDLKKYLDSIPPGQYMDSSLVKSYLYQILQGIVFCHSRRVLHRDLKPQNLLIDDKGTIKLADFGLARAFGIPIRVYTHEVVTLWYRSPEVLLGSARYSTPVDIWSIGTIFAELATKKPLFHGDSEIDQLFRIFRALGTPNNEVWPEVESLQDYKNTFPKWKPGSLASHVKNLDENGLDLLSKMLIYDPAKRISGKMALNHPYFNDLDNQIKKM
T5 sequence (P14635 whole entry partner): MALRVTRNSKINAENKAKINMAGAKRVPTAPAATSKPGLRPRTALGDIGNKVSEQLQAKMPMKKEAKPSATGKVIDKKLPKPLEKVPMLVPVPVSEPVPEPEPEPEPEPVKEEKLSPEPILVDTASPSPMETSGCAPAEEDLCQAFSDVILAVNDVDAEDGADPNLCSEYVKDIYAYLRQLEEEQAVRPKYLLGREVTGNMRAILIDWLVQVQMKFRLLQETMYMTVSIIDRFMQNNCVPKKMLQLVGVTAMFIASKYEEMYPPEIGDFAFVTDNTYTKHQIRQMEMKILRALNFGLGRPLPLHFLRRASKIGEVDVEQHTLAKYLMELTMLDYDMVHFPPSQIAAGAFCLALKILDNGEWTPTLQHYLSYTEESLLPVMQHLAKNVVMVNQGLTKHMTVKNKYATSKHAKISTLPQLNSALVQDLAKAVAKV

For the compound `CON=Cc1c(NOC)ncnc1Oc1ccc2[nH]ccc2c1` [Cpd 4, 4-(1H-indol-5-yloxy)-6-methoxyamino-pyrimidine-5-carbaldehyde O-methyl-oxime], the IC50 in assay [1] was 38.3 µM; in assay [2], above 100 µM; in assay [3] it was around 100 µM; in assay [4], above 10 µM; in assay [5] it was 4.77 µM; in assay [6] it was above 10 µM. The figures for the IC50 in assay [7] and in assay [8] were above 10 µM and above 100 µM, respectively.

Consider `CNC(=O)Nc1ccc(Oc2ncnc(N)c2C=NOC)cc1Cl` [Cpd 51, 1-{4-[6-amino-5-(methoxyimino-methyl)-pyrimidin-4-yloxy]-2-chloro-phenyl}-3-methyl-urea], for which the concentration for half-maximal inhibition (IC50) in assay [1] was 4.21 µM; in assay [2] it was above 100 µM; in assay [3], around 1 µM; in assay [4], 3.75 µM; in assay [5], 0.025 µM; in assay [6], above 100 µM. Also, the IC50 in assay [7] is 4.09 µM; in assay [8] it was above 100 µM.

For the compound `Cc1cc2c(F)c(Oc3ncnc(N)c3C=NOCCCN3CCN(S(C)(=O)=O)CC3)ccc2[nH]1` [Cpd 22, 4-amino-6-(4-fluoro-2-methyl-1H-indol-5-yloxy)-pyrimidine-5-carbaldehyde O-[3-(4-methanesulfonyl-piperazin-1-yl)-propyl]-oxime], the IC50 in assay [1] is above 10 µM; in assay [2], above 100 µM; in assay [3], 2.77 µM; in assay [4], above 10 µM; in assay [5] it was 0.045 µM; in assay [6] it was 1.41 µM. Besides, the IC50 was above 10 µM in assay [7] and above 100 µM in assay [8].

`Cc1cc2c(F)c(Oc3ncnc(N)c3/C=N/O)ccc2[nH]1` [Cpd 27, 4-amino-6-(4-fluoro-2-methyl-1H-indol-5-yloxy)-pyrimidine-5-carbaldehyde oxime]: the IC50 in assay [1] was 1.14 µM; in assay [2], around 10 µM; in assay [3] it was above 10 µM; in assay [4], 0.472 µM; in assay [5], 0.033 µM; in assay [6], around 10 µM. The results for the concentration for half-maximal inhibition (IC50) in assay [7] and in assay [8] were 0.492 µM and above 100 µM, respectively.

Turning to `Cc1cc2c(F)c(Oc3ncnc(N)c3C=NOCCCN3CCOCC3)ccc2[nH]1` [Cpd 19, 4-amino-6-(4-fluoro-2-methyl-1H-indol-5-yloxy)-pyrimidine-5-carbaldehyde O-(3-morpholin-4-yl-propyl)-oxime], the IC50 in assay [1] is 9.24 µM; in assay [2] it was above 100 µM; in assay [3], 3.58 µM; in assay [4], 4.91 µM; in assay [5] it was around 0.1 µM; in assay [6], 1.23 µM. In addition, the IC50 in assay [7] was 3.82 µM; in assay [8] it was above 100 µM.

With `CNC(=O)Nc1ccc(Oc2ncnc(N)c2C=NOC)cc1` [Cpd 68, 1-{4-[6-amino-5-(methoxyimino-methyl)-pyrimidin-4-yloxy]-phenyl}-3-methyl-urea], the IC50 in assay [1] was above 10 µM; in assay [2], above 10 µM; in assay [3], above 10 µM; in assay [4], above 10 µM; in assay [5], 0.233 µM; in assay [6], above 100 µM. Further, the half-maximal inhibitory concentration (IC50) in assay [7] was above 10 µM; in assay [8], above 100 µM.

`CON=Cc1c(N)ncnc1Oc1ccc2c(c1)cc(C)n2C(=O)NCCN(C)C` [Cpd 41, 5-[6-amino-5-(methoxyimino-methyl)-pyrimidin-4-yloxy]-2-methyl-indole-1-carboxylic acid (2-dimethylamino-ethyl)-amide]: the IC50 in assay [1] was above 10 µM; in assay [3], above 10 µM; in assay [4] it was above 10 µM; in assay [5], 0.0424 µM; in assay [6], above 10 µM; in assay [7], above 1 µM. Moreover, the IC50 in assay [8] is above 100 µM.

For `CCNC(=O)Nc1ccc(Oc2ncnc(N)c2C=NOC)cc1C` [Cpd 66, 1-{4-[6-amino-5-(methoxyimino-methyl)-pyrimidin-4-yloxy]-2-methyl-phenyl}-3-ethyl-urea], the IC50 in assay [1] was above 100 µM; in assay [2] it was above 100 µM; in assay [3], above 10 µM; in assay [4], above 100 µM; in assay [5], 0.18 µM; in assay [6], above 100 µM. Also, the IC50 in assay [7] and in assay [8] was above 100 µM throughout.

On to `CNc1ncnc(Oc2ccc3[nH]ccc3c2)c1C=NOC` [Cpd 3, 4-(1H-indol-5-yloxy)-6-methylamino-pyrimidine-5-carbaldehyde O-methyl-oxime], for which the IC50 in assay [1] is above 10 µM; in assay [2], above 100 µM; in assay [3], above 100 µM; in assay [4], above 10 µM; in assay [5], above 100 µM; in assay [6] it was above 100 µM. In addition, the IC50 in assay [7] was above 10 µM; in assay [8], above 100 µM.

For `Cc1cc2c(F)c(Oc3ncnc(N)c3C=NOCCCN3CCCC3)ccc2[nH]1` [Cpd 18, 4-amino-6-(4-fluoro-2-methyl-1H-indol-5-yloxy)-pyrimidine-5-carbaldehyde O-(3-pyrrolidin-1-yl-propyl)-oxime], the half-maximal inhibitory concentration (IC50) in assay [1] is 4.5 µM; in assay [2], above 10 µM; in assay [3] it was 8.11 µM; in assay [4], 4.18 µM; in assay [5], 0.065 µM; in assay [6], 1.49 µM. Further, the results for the 50% inhibitory concentration (IC50) in assay [7] and in assay [8] were 2.61 µM and above 100 µM, respectively.

`CNC(=O)n1c(C)cc2cc(Oc3ncnc(N)c3C=NOC)ccc21` [Cpd 49, 5-[6-amino-5-(methoxyimino-methyl)-pyrimidin-4-yloxy]-2-methyl-indole-1-carboxylic acid methylamide]: the IC50 in assay [1] is 3.14 µM; in assay [2], above 100 µM; in assay [3], around 10 µM; in assay [4] it was 2.98 µM; in assay [5], 0.001 µM; in assay [6], around 100 µM. Further, the values for the IC50 in assay [7] and in assay [8] were 1.39 µM and above 100 µM, respectively.

Regarding `CC(=O)N1CCN(CCCON=Cc2c(N)ncnc2Oc2ccc3[nH]c(C)cc3c2F)CC1` [Cpd 23, 4-amino-6-(4-fluoro-2-methyl-1H-indol-5-yloxy)-pyrimidine-5-carbaldehyde O-[3-(4-acetyl-piperazin-1-yl)-propyl]-oxime], the IC50 in assay [1] is above 10 µM; in assay [2] it was above 100 µM; in assay [3], 8.32 µM; in assay [4] it was above 10 µM; in assay [5], 0.082 µM; in assay [6], 1.78 µM. Besides, the figures for the IC50 in assay [7] and in assay [8] were above 10 µM and above 100 µM, respectively.

With `CCNC(=O)Nc1ccc(Oc2ncnc(N)c2C=NOC)cc1` [Cpd 69, 1-{4-[6-amino-5-(methoxyimino-methyl)-pyrimidin-4-yloxy]-phenyl}-3-ethyl-urea], the IC50 in assay [1] was above 10 µM; in assay [2] it was above 10 µM; in assay [3] it was above 10 µM; in assay [4], above 10 µM; in assay [5] it was 0.142 µM; in assay [6] it was above 100 µM. In addition, the results for the IC50 in assay [7] and in assay [8] were above 10 µM and above 100 µM, respectively.
